Source: the supplement of paper PMC10949913
Structures can show the parent of a compound that is named as a salt.

Experiments:
CU-ACC1 = experiment: ExcessHSA synergy score with TAK-243; higher = less synergy (negative = synergistic); conditions: combined with: TAK-243 (MLN-7243) matrix, 9-point 1:2 dilution
Description: (§1)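 Each drug was tested at 9 points with 1:2 dilution; viability was read by CellTiter-Glo as in the single-agent screen. Synergy is scored as ExcessHSA (sum of excess over highest single agent; negative = synergy) and the Beta interaction parameter (<1 synergy).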

NCI-H295R = experiment: as above; conditions: combined with: TAK-243 (MLN-7243) matrix, 9-point 1:2 dilution
Description: as §1

SMILES	ExcessHSA synergy score with TAK-243 (CU-ACC1)	ExcessHSA synergy score with TAK-243 (NCI-H295R)
O=C(C[C@@H](C(F)F)n1ccc(F)n1)N1CCC(O)(Cn2cnc3c(cnn3-c3ccc(F)cc3)c2=O)CC1 [FT671]	-97.6	431
Cc1ccc(NC(=O)NCc2ccc3c(c2)CN(C2CCC(=O)NC2=O)C3=O)cc1Cl (centres undefined) [CC-885]	356	370
CC1(C)CCC2(CC1)N[C@@H](C(=O)N[C@@H]1CC[C@@H](C(N)=O)OC1)[C@H](c1ccnc(Cl)c1F)[C@]21C(=O)Nc2cc(Cl)ccc21 [Milademetan]	-380	-111
C=CCn1c(=O)c2cnc(Nc3ccc(N4CCN(C)CC4)cc3)nc2n1-c1cccc(C(C)(C)O)n1 [MK-1775]	295	169
CC(C)C[C@H](NC(=O)[C@H](CCc1ccccc1)NC(=O)CN1CCOCC1)C(=O)N[C@@H](Cc1ccccc1)C(=O)N[C@@H](CC(C)C)C(=O)[C@@]1(C)CO1 [Carfilzomib]	-949	-675
C[C@@H]1C[C@H]2[C@@H]3CCC4=CC(=O)C=C[C@]4(C)[C@@]3(F)[C@@H](O)C[C@]2(C)[C@@]1(O)C(=O)CO [Dexamethasone]	420	743
O=C(c1ccc(F)c(F)c1Nc1ccc(I)cc1F)N1CC(O)([C@@H]2CCCCN2)C1 [Cobimetinib]	450	819
CCOC(=O)[C@@H](N)CCC(=O)N[C@@H](CSCc1ccccc1)C(=O)N[C@@H](C(=O)OCC)c1ccccc1 [Ezatiostat]	-271	-222
O=C(O)CNC(=O)c1ncc(-c2cccc(Cl)c2)cc1O	-199	289
CN1CCN(c2ccc(Nc3ncc4cc5n(c4n3)C3(CCCCC3)CNC5=O)nc2)CC1 [Trilaciclib (hydrochloride)]	-171	125
Cc1nc2ccc(F)cc2n1-c1nc(N)c(F)c(Nc2ccc(C(F)(F)F)cc2)n1 [PTC596]	-119	-3.1
NS(=O)(=O)OC[C@@H]1C[C@@H](n2ccc3c(N[C@H]4CCc5ccccc54)ncnc32)C[C@@H]1O [MLN-4924]	-111	-344
Cc1cnc(CNC(=O)c2c(=O)c3ccc(N4CCCN(C)CC4)nc3n3c2sc2ccccc23)cn1 [CX-5461]	210	895
O=C(N[C@@H](Cc1coc2ccccc12)B(O)O)[C@@H]1C[C@H]2CC[C@@H]1O2 [LMP7-IN-1]	-335	-55.7
C[C@@H]1CN(Cc2ccc(F)cc2)[C@@H](C)CN1C(=O)c1cc2c(C(=O)C(=O)N(C)C)cn(C)c2cc1Cl [Talmapimod]	218	657
CCN(C(=O)c1cc(F)ccc1Oc1cncnc1N1CC2(CCN(C[C@H]3CC[C@H](NS(=O)(=O)CC)CC3)CC2)C1)C(C)C [SNDX-5613]	-82.8	50
C/C=C(/C)C(=O)O[C@H]1C(C)=C2[C@H]([C@@H]1OC(=O)CCCCCCC)[C@@](C)(OC(C)=O)C[C@H](OC(=O)CCC)[C@@]1(O)[C@H]2OC(=O)[C@@]1(C)O [Thapsigargin]	-443	-409
CCS(=O)(=O)c1cc2cc(C[C@](O)(CC(C)(C)c3ccc(F)cc3C(N)=O)C(F)(F)F)[nH]c2cn1	653	885
Cc1[nH]c2ccccc2c1CCNCc1ccc(/C=C/C(=O)NO)cc1 [Panobinostat]	181	-23.3
C[C@H]1CCN1c1nc(N2C[C@@H]3[C@@H](CC(=O)O)[C@@H]3C2)cc(C(F)(F)F)n1 [Ketohexokinase inhibitor 1]	-31.2	49.1
CNc1nc(NC2CCN(Cc3ccc4c(cc(C#N)n4C[C@H](C)N4CCN(S(C)(=O)=O)CC4)c3C)CC2)c2cc(CC(F)(F)F)sc2n1 [Ziftomenib (KO-539)]	-443	-888
O=C(NCc1ccc(S(=O)(=O)c2cccc(C(F)(F)F)c2)cc1)c1cnc2[nH]ncc2c1 [GNE-618]	-406	-555
Nc1ccn([C@@H]2O[C@H](CO)[C@@H](O)C2(F)F)c(=O)n1 [Gemcitabine]	-457	236
O=C(c1cc(-c2cc3c(cc2C(=O)N2Cc4ccccc4CC2CN2CCOCC2)OCO3)n2c1CCCC2)N(c1ccccc1)c1ccc(O)cc1 (centres undefined)	-937	-903
CC(=O)N1CCC(Nc2cc(C(=O)NC[C@H](O)CN3CCc4ccccc4C3)ncn2)CC1	517	649
Cc1cc(C(=O)CN2CCCCC2)c(C)n1-c1ccc(Cl)cc1 [IU1-47]	-58.7	125

SMILES	ExcessHSA synergy score with TAK-243 (CU-ACC1)	ExcessHSA synergy score with TAK-243 (NCI-H295R)
C[C@@H]1OCC2(CCN(c3cnc(Sc4ccnc(N)c4Cl)c(N)n3)CC2)[C@@H]1N [TNO-155]	176	322
CSC[C@H]1CN(Cc2c[nH]c3c(N)ncnc23)C[C@@H]1O [MT-DADMe-ImmA]	-323	422
O=C(O)c1ccc(CN2CCC(CN[C@@H]3C[C@H]3c3ccccc3)CC2)cc1	-27.5	23.7
COc1cc2c(c(OC)n1)[C@]1(O)[C@H](O)[C@H](CN(C)C)[C@@H](c3ccccc3)[C@]1(c1ccc(C#N)cc1)O2 [Zotatifin]	1170	686
Cc1cc(F)c(C(=O)Nc2cccc(-c3nncn3C(C)C)n2)cc1-n1cnc(C2CC2)c1 [Selonsertib]	496	231
C=CCNc1nc(N)c(C(=O)c2ccc(F)s2)s1 [TT-10]	584	922
O=C(O)C1(C(=O)O)CCC1.[NH2-].[NH2-].[Pt+2] [Carboplatin]	-188	-21.5
O=C1CC[C@H](N2Cc3c(OCc4ccc(CN5CCOCC5)cc4)cccc3C2=O)C(=O)N1 [Iberdomide]	393	1110
O=C(c1cc(Cc2n[nH]c(=O)c3ccccc23)ccc1F)N1CCN(C(=O)C2CC2)CC1 [Olaparib]	468	859
Cc1nc2cccc(N)c2c(=O)n1C1CCC(=O)NC1=O (centres undefined) [Avadomide]	-213	1030
O=c1sn(-c2cccc3ccccc23)c(=O)n1Cc1ccccc1 [Tideglusib]	-108	-74.2
COC(=O)[C@]12CCC(C)(C)C[C@H]1[C@H]1C(=O)C=C3[C@@]4(C)C=C(C#N)C(=O)C(C)(C)[C@@H]4CC[C@@]3(C)[C@]1(C)CC2 [CDDO-Me]	94.3	271
CC(C)NC[C@@H](C(=O)N1CCN(c2ncnc3c2[C@H](C)C[C@H]3O)CC1)c1ccc(Cl)cc1 [Ipatasertib]	85.6	-60.3
O=c1[nH]c(CSC2CCC(O)CC2)nc2cc(OCC3CC3)cc(F)c12 (centres undefined)	650	1170
CC(C)Nc1cc(-c2c[nH]c(C(=O)N[C@H](CO)c3cccc(Cl)c3)c2)c(Cl)cn1 [Ulixertinib]	-564	-674
NC(=O)/C(=C/n1cnc(-c2cc(C(F)(F)F)cc(C(F)(F)F)c2)n1)c1cncnc1 [Eltanexor]	-817	-429
Cc1nc(-c2nc(-c3ccc(OC(F)(F)F)cc3)no2)nn1Cc1cccc(N2CCC(S(C)(=O)=O)CC2)c1	422	691
C#CCC(Cc1cnc2nc(N)nc(N)c2n1)c1ccc(C(=O)N[C@@H](CCC(=O)O)C(=O)O)cc1 (some centres undefined) [Pralatrexate]	137	-57.8
CN(Cc1cnc2nc(N)nc(N)c2n1)c1ccc(C(=O)N[C@@H](CCC(=O)O)C(=O)O)cc1 [Methotrexate]	544	591
COc1cc2c(cc1-c1c(C)noc1C)cc(C)c(=O)n2Cc1ccccn1 [ODM-207]	182	-3.62
CC1(C)CCC(c2ccc(Cl)cc2)=C(CN2CCN(c3ccc(C(=O)NS(=O)(=O)c4ccc(N[C@H](CCN5CCOCC5)CSc5ccccc5)c(S(=O)(=O)C(F)(F)F)c4)cc3)CC2)C1 [Navitoclax]	-563	-505
CN1C(=O)[C@@H](NC(=O)c2n[nH]c(Cc3ccccc3)n2)COc2ccccc21	359	714
CS(=O)(=O)c1ccc(Oc2cc(F)cc(C#N)c2)c2c1[C@H](O)[C@H](F)[C@@H]2F [PT-2977]	217	801
CC[C@@]1(O)C(=O)OCc2c1cc1n(c2=O)Cc2cc3c(CN(C)C)c(O)ccc3nc2-1 [Topotecan hydrochloride]	-710	-194
Cc1cc2c(C(N)=O)cccc2n1-c1nc2c(c(NCc3ccccc3)n1)COCC2 [CB-5083]	-143	71.1
CC1(C)CC[C@]2(NC(=O)C(C)(F)F)CC[C@]3(C)[C@H](C(=O)C=C4[C@@]5(C)C=C(C#N)C(=O)C(C)(C)[C@@H]5CC[C@]43C)[C@@H]2C1 [Omaveloxolone (RTA-408)]	367	323
